Measured values from ChEMBL document CHEMBL1124113, “Melanin concentrating hormone analogues: contraction of the cyclic structure. 1. Agonist activity” (J Med Chem, 1988).
Bridge positions count the residues as written; N and C are the ends. Peptide text beside a SMILES is read from it.

Legend:
[1] = tested on: melanocortin receptor (frog); test: Melanosome dispersion (skin darkening) within melanocytes (Alpha-MSH-like activity), measured on tetrapod skin; e =Inactive at 10e-5
[2] = tested on: Melanin-concentrating hormone receptor (Synbranchus marmoratus); test: Melanin concentrating hormone(MCH) activity, causes melanosome aggregation within integumental fish melanocytes and lightening of the skin; d = Inactive at 10e-6 M
[3] = tested on: melanocortin receptor (frog); test: Melanosome dispersion (skin darkening) within melanocytes (Alpha-MSH-like activity), measured on tetrapod skin; e = Inactive at 10e-5
[4] = tested on: melanocortin receptor (frog); test: Melanosome dispersion (skin darkening) within melanocytes (Alpha-MSH-like activity), measured on tetrapod skin; Inactive at 10e-5
[5] = tested on: Melanin-concentrating hormone receptor (Synbranchus marmoratus); test: Melanin concentrating hormone(MCH) activity, causes melanosome aggregation within integumental fish melanocytes and lightening of the skin; d = Inactive at 10e-6 M; remark: listed apart in the source

| EC50 [2] | Compound | other results |
| --- | --- | --- |
| Not Active | CSCC[C@H](NC(=O)[C@H](C)N)C(=O)N[C@H]1CSSC[C@@H](C(=O)N[C@@H](Cc2c[nH]c3ccccc23)C(=O)N[C@@H](CCC(=O)O)C(=O)N[C@H](C(=O)O)C(C)C)NC(=O)[C@@H]2CCCN2C(=O)[C@H](CCCN=C(N)N)NC(=O)[C@H](Cc2ccc(O)cc2)NC(=O)[C@H](C(C)C)NC(=O)[C@H](CCCN=C(N)N)NC(=O)CNC1=O (H-AMCGRVYRPCWEV-OH; disulfide 3-10) | EC50 [1]: Not Active |
| – | CSCC[C@H](NC(=O)[C@H](C)N)C(=O)N[C@H](C(=O)N[C@H]1CSSC[C@@H](C(=O)N[C@@H](Cc2c[nH]c3ccccc23)C(=O)N[C@@H](CCC(=O)O)C(=O)N[C@H](C(=O)O)C(C)C)NC(=O)[C@@H]2CCCN2C(=O)[C@H](CCCN=C(N)N)NC(=O)[C@H](Cc2ccc(O)cc2)NC(=O)[C@H](C(C)C)NC(=O)[C@H](CCCN=C(N)N)NC1=O)C(C)C (H-AMVCRVYRPCWEV-OH; disulfide 4-10) | EC50 [3]: Not Active |
| Not Active | CSCC[C@H](NC(=O)[C@H](C)N)C(=O)N[C@H](C(=O)NCC(=O)N[C@@H](CCCN=C(N)N)C(=O)N[C@H]1CSSC[C@@H](C(=O)N[C@@H](Cc2c[nH]c3ccccc23)C(=O)N[C@@H](CCC(=O)O)C(=O)N[C@H](C(=O)O)C(C)C)NC(=O)[C@@H]2CCCN2C(=O)[C@H](CCCN=C(N)N)NC(=O)[C@H](Cc2ccc(O)cc2)NC1=O)C(C)C (H-AMVGRCYRPCWEV-OH; disulfide 6-10) | – |
| Not Active | CC(C)[C@H](NC(=O)[C@H](CCC(=O)O)NC(=O)[C@H](Cc1c[nH]c2ccccc12)NC(=O)[C@@H]1CSSC[C@H](N)C(=O)NCC(=O)N[C@@H](CCCN=C(N)N)C(=O)N[C@@H](C(C)C)C(=O)N[C@@H](Cc2ccc(O)cc2)C(=O)N[C@@H](CCCN=C(N)N)C(=O)N2CCC[C@H]2C(=O)N1)C(=O)O (H-CGRVYRPCWEV-OH; disulfide 1-8) | – |
| – | CC(C)[C@H](NC(=O)[C@H](CCC(=O)O)NC(=O)[C@H](Cc1c[nH]c2ccccc12)NC(=O)[C@@H]1CSSC[C@H](N)C(=O)N[C@@H](CCCN=C(N)N)C(=O)N[C@@H](C(C)C)C(=O)N[C@@H](Cc2ccc(O)cc2)C(=O)N[C@@H](CCCN=C(N)N)C(=O)N2CCC[C@H]2C(=O)N1)C(=O)O (H-CRVYRPCWEV-OH; disulfide 1-7) | EC50 [4]: Not Active |
| – | CC(C)[C@H](NC(=O)[C@H](CCC(=O)O)NC(=O)[C@H](Cc1c[nH]c2ccccc12)NC(=O)[C@@H]1CSSC[C@H](N)C(=O)N[C@@H](Cc2ccc(O)cc2)C(=O)N[C@@H](CCCN=C(N)N)C(=O)N2CCC[C@H]2C(=O)N1)C(=O)O (H-CYRPCWEV-OH; disulfide 1-5) | EC50 [4]: Not Active |
| Not Active | CSCC[C@H](NC(=O)[C@H](C)NC(=O)[C@H](CCCN=C(N)N)NC(=O)[C@H](CCSC)NC(=O)[C@@H](NC(=O)[C@@H](N)CC(=O)O)[C@@H](C)O)C(=O)N[C@H]1CSSC[C@@H](C(=O)N[C@@H](Cc2c[nH]c3ccccc23)C(=O)N[C@@H](CCC(=O)O)C(=O)N[C@H](C(=O)O)C(C)C)NC(=O)[C@@H]2CCCN2C(=O)[C@H](CCCN=C(N)N)NC(=O)[C@H](Cc2ccc(O)cc2)NC(=O)[C@H](C(C)C)NC(=O)[C@H](CCCN=C(N)N)NC(=O)CNC1=O (H-DTMRAMCGRVYRPCWEV-OH; disulfide 7-14) | – |
| Not Active | CSCC[C@H](NC(=O)[C@H](C)NC(=O)[C@H](CCCN=C(N)N)NC(=O)[C@H](CCSC)NC(=O)[C@@H](NC(=O)[C@@H](N)CC(=O)O)[C@@H](C)O)C(=O)N[C@H](C(=O)N[C@H]1CSSC[C@@H](C(=O)N[C@@H](Cc2c[nH]c3ccccc23)C(=O)N[C@@H](CCC(=O)O)C(=O)N[C@H](C(=O)O)C(C)C)NC(=O)[C@@H]2CCCN2C(=O)[C@H](CCCN=C(N)N)NC(=O)[C@H](Cc2ccc(O)cc2)NC(=O)[C@H](C(C)C)NC(=O)[C@H](CCCN=C(N)N)NC1=O)C(C)C (H-DTMRAMVCRVYRPCWEV-OH; disulfide 8-14) | – |
| – | CSCC[C@H](NC(=O)[C@H](C)NC(=O)[C@H](CCCN=C(N)N)NC(=O)[C@H](CCSC)NC(=O)[C@@H](NC(=O)[C@@H](N)CC(=O)O)[C@@H](C)O)C(=O)N[C@H](C(=O)NCC(=O)N[C@@H](CCCN=C(N)N)C(=O)N[C@H]1CSSC[C@@H](C(=O)N[C@@H](Cc2c[nH]c3ccccc23)C(=O)N[C@@H](CCC(=O)O)C(=O)N[C@H](C(=O)O)C(C)C)NC(=O)[C@@H]2CCCN2C(=O)[C@H](CCCN=C(N)N)NC(=O)[C@H](Cc2ccc(O)cc2)NC1=O)C(C)C (H-DTMRAMVGRCYRPCWEV-OH; disulfide 10-14) | EC50 [5]: Not Active |
